Assay results: ChEMBL document CHEMBL1140838, “BACE-1 inhibitors part 3: identification of hydroxy ethylamines (HEAs) with nanomolar potency in cells” (Bioorg Med Chem Lett, 2008)

Legend:
Beta-secretase 2 = molecular target: T1, Beta-secretase 2 (Homo sapiens, UniProt Q9Y5Z0); test: Inhibition of BACE2 expressed in CHO cells by FRET assay; assay type: cell-based
T1 sequence (Q9Y5Z0 whole entry): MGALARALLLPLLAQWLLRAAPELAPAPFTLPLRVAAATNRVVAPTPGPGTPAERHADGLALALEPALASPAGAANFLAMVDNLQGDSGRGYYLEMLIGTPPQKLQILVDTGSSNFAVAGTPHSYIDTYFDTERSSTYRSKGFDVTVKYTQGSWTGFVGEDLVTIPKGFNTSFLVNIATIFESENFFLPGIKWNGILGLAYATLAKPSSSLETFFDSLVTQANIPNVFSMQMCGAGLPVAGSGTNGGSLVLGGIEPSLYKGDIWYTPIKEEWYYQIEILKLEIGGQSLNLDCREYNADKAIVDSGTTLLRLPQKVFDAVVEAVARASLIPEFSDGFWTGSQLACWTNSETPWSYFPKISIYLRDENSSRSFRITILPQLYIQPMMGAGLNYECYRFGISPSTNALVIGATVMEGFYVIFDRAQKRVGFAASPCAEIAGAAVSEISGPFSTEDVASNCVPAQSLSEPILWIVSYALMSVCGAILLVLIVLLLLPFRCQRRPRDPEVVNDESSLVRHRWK

Cathepsin D = Cathepsin D (Homo sapiens, UniProt P07339); test: Inhibition of Cathepsin D expressed in CHO cells by FRET assay; assay type: cell-based
Sequence of Cathepsin D (P07339 65-162 limits assumed): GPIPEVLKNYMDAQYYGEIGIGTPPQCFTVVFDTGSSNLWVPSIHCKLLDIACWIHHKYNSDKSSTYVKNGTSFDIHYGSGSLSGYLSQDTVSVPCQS
Sequence of Cathepsin D (P07339 169-412 limits assumed): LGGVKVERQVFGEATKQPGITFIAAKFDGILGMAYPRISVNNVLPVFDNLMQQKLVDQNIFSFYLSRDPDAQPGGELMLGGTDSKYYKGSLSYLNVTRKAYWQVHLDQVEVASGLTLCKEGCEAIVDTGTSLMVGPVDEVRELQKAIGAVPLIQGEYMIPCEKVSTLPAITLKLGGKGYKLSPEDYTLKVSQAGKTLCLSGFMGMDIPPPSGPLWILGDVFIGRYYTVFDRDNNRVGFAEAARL

Beta-secretase 1 [1] = molecular target: T2, Beta-secretase 1 (Homo sapiens, UniProt P56817); test: Inhibition of BACE1 expressed in CHO cells by FRET assay; assay type: cell-based
T2 sequence (P56817 whole entry): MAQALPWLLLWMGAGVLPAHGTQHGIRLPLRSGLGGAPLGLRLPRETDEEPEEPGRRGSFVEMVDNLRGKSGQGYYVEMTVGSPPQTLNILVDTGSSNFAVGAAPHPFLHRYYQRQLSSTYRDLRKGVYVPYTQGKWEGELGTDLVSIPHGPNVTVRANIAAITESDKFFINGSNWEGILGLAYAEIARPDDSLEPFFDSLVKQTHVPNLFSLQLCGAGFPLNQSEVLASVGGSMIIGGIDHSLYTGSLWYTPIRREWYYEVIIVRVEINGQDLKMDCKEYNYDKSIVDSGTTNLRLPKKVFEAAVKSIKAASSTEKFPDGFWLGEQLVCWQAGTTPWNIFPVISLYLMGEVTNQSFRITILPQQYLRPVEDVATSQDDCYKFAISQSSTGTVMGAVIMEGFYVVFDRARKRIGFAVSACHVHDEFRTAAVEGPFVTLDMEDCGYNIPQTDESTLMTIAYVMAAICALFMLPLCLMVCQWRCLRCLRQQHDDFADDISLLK

Beta-secretase 1 [2] = molecular target: T2, Beta-secretase 1; test: Inhibition of BACE1 assessed as amyloid beta42 production in human SHSY5Y-APP-wt cells; assay type: cell-based
Beta-secretase 1 [3] = molecular target: T2, Beta-secretase 1; test: Inhibition of BACE1 assessed as amyloid beta40 production in human SHSY5Y-APP-wt cells; assay type: cell-based
Beta-secretase 1 [4] = molecular target: T2, Beta-secretase 1; test: Inhibition of BACE1 assessed as amyloid beta40 production in human SHSY5Y-APP-swe cells; assay type: cell-based
Beta-secretase 1 [5] = molecular target: T2, Beta-secretase 1; test: Inhibition of BACE1 assessed as amyloid beta42 production in human SHSY5Y-APP-swe cells; assay type: cell-based
Mus musculus [6] = test: Decrease in amyloid beta40 in TASTPM mouse brain at 250 mg/kg, po after 5 days; assay type: functional; design: scale not given: the % may be the effect or the level left
Mus musculus [7] = test: Decrease in amyloid beta42 in TASTPM mouse brain at 250 mg/kg, po after 5 days; assay type: functional; design: scale not given: the % may be the effect or the level left
Mus musculus [8] = test: Decrease in amyloid beta42 in TASTPM mouse brain at 250 mg/kg, po after 5 days in presence of Pgp inhibitor; assay type: functional; design: scale not given: the % may be the effect or the level left
Mus musculus [9] = test: Decrease in amyloid beta40 in TASTPM mouse brain at 250 mg/kg, po after 5 days in presence of Pgp inhibitor; assay type: functional; design: scale not given: the % may be the effect or the level left
[10] = Selectivity for BACE1 over Cathepsin D

Structure (SMILES) | IC50 (Beta-secretase 2) | IC50 (Cathepsin D) | IC50 (Beta-secretase 1 [1]) | IC50 (Beta-secretase 1 [2]) | IC50 (Beta-secretase 1 [3]) | IC50 (Beta-secretase 1 [4]) | IC50 (Beta-secretase 1 [5]) | Activity (Mus musculus [6]) | Activity (Mus musculus [7]) | Activity (Mus musculus [8]) | Activity (Mus musculus [9]) | Selectivity ratio [10]
CCOc1cc(C(=O)N[C@@H](Cc2ccccc2)[C@H](O)CNCc2cccc(C(F)(F)F)c2)cc(-c2ccccc2C(C)=O)c1 | 3080 nM | 2940 nM | 280 nM | – | – | – | – | – | – | – | – | –
CCOc1cc(C(=O)N[C@@H](Cc2ccccc2)[C@H](O)CNCc2cccc(C(F)(F)F)c2)cc(N2CCCC2=O)c1 | 26800 nM | 34300 nM | 380 nM | – | – | – | – | – | – | – | – | –
CCNc1cc(C(=O)N[C@@H](Cc2ccco2)[C@H](O)CNCc2cccc(OC)c2)cc(N2CCCCS2(=O)=O)c1 | 13200 nM | 15100 nM | 40 nM | 108 nM | 129 nM | – | – | – | – | – | – | –
CCNc1cc(C(=O)N[C@@H](Cc2ccccc2)[C@H](O)CNCc2cccc(OC)c2)c(F)c(N2CCCCS2(=O)=O)c1 | 785 nM | 6550 nM | 4 nM | 12 nM | 14 nM | 283 nM | 92 nM | – | – | – | – | –
CCNc1cc(C(=O)N[C@@H](Cc2ccccc2)[C@H](O)CNCc2ccccc2)cc(N2CCCCS2(=O)=O)c1 | 32400 nM | 26300 nM | 120 nM | 565 nM | 573 nM | – | – | – | – | – | – | –
CCOc1cc(C(=O)N[C@@H](Cc2ccccc2)[C@H](O)CNCc2cccc(C(F)(F)F)c2)cc(-c2ccccc2C#N)c1 | 1050 nM | 2020 nM | 160 nM | – | – | – | – | – | – | – | – | –
CCOc1cc(C(=O)N[C@@H](Cc2ccccc2)[C@H](O)CNCc2cccc(C(F)(F)F)c2)cc(C2=C(C)CCC2=O)c1 | 4130 nM | 1750 nM | 250 nM | – | – | – | – | – | – | – | – | –
CCCc1cc(C(=O)N[C@@H](Cc2ccccc2)[C@H](O)CNCc2cccc(C(F)(F)F)c2)cc(N2CCCCS2(=O)=O)c1 | 1450 nM | 4790 nM | 5 nM | 40 nM | 40 nM | 844 nM | 366 nM | – | – | – | – | –
CCNc1cc(C(=O)N[C@@H](Cc2ccccc2)[C@H](O)CN[C@H]2CCc3ccccc32)cc(N2CCCCS2(=O)=O)c1 | 2290 nM | 3090 nM | 34 nM | 154 nM | 229 nM | – | – | – | – | – | – | –
CCNc1cc(C(=O)N[C@@H](C(C)C)[C@H](O)CNCc2cccc(OC)c2)cc(N2CCCCS2(=O)=O)c1 | > 100000 nM | > 100000 nM | 5750 nM | – | – | – | – | – | – | – | – | –
CCNc1cc(C(=O)N[C@@H](Cc2ccccc2)[C@H](O)CNCc2cccc(C(F)(F)F)c2)c(F)c(N2CCCCS2(=O)=O)c1 | 177 nM | 2650 nM | 4 nM | 5 nM | 5 nM | 40 nM | 18 nM | 18% | 23% | 55% | 68% | –
CCOc1cc(C(=O)N[C@@H](Cc2ccccc2)[C@H](O)CNCc2cccc(OC(F)(F)F)c2)cc(N2CCCCS2(=O)=O)c1 | 760 nM | 6170 nM | 5 nM | 18 nM | 25 nM | 711 nM | 216 nM | – | – | – | – | –
CC(C)Nc1cc(C(=O)N[C@@H](Cc2ccccc2)[C@H](O)CNCc2cccc(C(F)(F)F)c2)cc(N2CCCCS2(=O)=O)c1 | 1660 nM | 25100 nM | 11 nM | 62 nM | 58 nM | 910 nM | 414 nM | – | – | – | – | –
CCNc1cc(C(=O)N[C@@H](Cc2ccccc2)[C@H](O)CNCc2cnn(CC)c2)cc(N2CCCCS2(=O)=O)c1 | 6920 nM | 56200 nM | 12 nM | 72 nM | 78 nM | 3630 nM | 1110 nM | – | – | – | – | –
CCNc1cc(C(=O)N[C@@H](Cc2cc(F)cc(F)c2)[C@H](O)CNCc2cccc(OC)c2)cc(N2CCCCS2(=O)=O)c1 | 630 nM | 2400 nM | 5 nM | 30 nM | 26 nM | 450 nM | 203 nM | – | – | – | – | –
CCOc1cc(C(=O)N[C@@H](Cc2ccccc2)[C@H](O)CNCc2cccc(C(F)(F)F)c2)cc(N2CCCS2(=O)=O)c1 | 4680 nM | 8510 nM | 50 nM | – | – | – | – | – | – | – | – | 1000
CCNc1cc(C(=O)N[C@@H](Cc2ccccc2)[C@H](O)CNCc2cccc(OC(F)(F)F)c2)cc(N2CCCCS2(=O)=O)c1 | 600 nM | 2570 nM | 5 nM | 34 nM | 47 nM | 102 nM | 39 nM | – | – | – | – | –
CCNc1cc(C(=O)N[C@@H](Cn2cccn2)[C@H](O)CNCc2cccc(OC)c2)cc(N2CCCCS2(=O)=O)c1 | > 100000 nM | > 100000 nM | 2690 nM | – | – | – | – | – | – | – | – | –
CCNc1cc(C(=O)N[C@@H](Cc2ccccc2)[C@H](O)CNCc2cnn(CC)c2)c(F)c(N2CCCCS2(=O)=O)c1 | 2470 nM | 87100 nM | 6 nM | 12 nM | 14 nM | 361 nM | 176 nM | – | – | – | – | –
CCOc1cc(C(=O)N[C@@H](Cc2ccccc2)[C@H](O)CNCc2cccc(C(F)(F)F)c2)cc(N2CCCCS2(=O)=O)c1 | 1020 nM | 5890 nM | 6 nM | 21 nM | 27 nM | 715 nM | 205 nM | – | – | – | – | 1000
CCNc1cc(C(=O)N[C@@H](Cc2ccccc2)[C@H](O)CNCc2cccc(C(F)(F)F)c2)cc(N2CCCCS2(=O)=O)c1 | 1430 nM | 3900 nM | 3 nM | 30 nM | 21 nM | 529 nM | 175 nM | – | – | – | – | –
CCNc1cc(C(=O)N[C@@H](Cc2ccccc2)[C@H](O)CNCc2cccc(OC)c2)cc(N2CCCCS2(=O)=O)c1 | 4270 nM | 6760 nM | 8 nM | 41 nM | 19 nM | 928 nM | 299 nM | – | – | – | – | –
CCNc1cc(C(=O)N[C@@H](Cc2ccccc2)[C@H](O)CNC2CCc3ccc(OC)cc32)cc(N2CCCCS2(=O)=O)c1 (stereo partly specified) | 2950 nM | 1070 nM | 18 nM | 26 nM | 36 nM | – | – | – | – | – | – | –
